According to patent US5721214A, “Inhibitors of factor Xa” (COR Therapeutics, Inc., priority 1995, dated 1998):
Read-outs that look alike come from different tables or passages of the source. Numbered stars: 1 amine (or outer) side, 2 acyl side, 3 side chain; on linkers, the order of the positions; unused ones are H or OH. Square brackets hold non-standard residues; d marks the D form. Peptide text beside a SMILES is read from it. * marks the point of attachment. d(hArg) = N=C(N)NCCCC[C@@H](N)C(=O)O; Hydrocinnamoyl = O=C(CCc1ccccc1)*; dCit = NC(=O)NCCC[C@@H](N)C(=O)O; Suc = O=C(CCC(=O)[*:2])[*:1]; Boc = CC(C)(C)OC(=O)*; Aib = CC(C)(N)C(=O)O

How the values were obtained:
[1] = molecular target: factor Xa (Homo sapiens, UniProt P00742); assay: Factor Xa amidolytic assay (chromogenic substrate S-2765); format: biochemical
[2] = Pharmacokinetics/Pharmacodynamics in rabbits after I.V. bolus; format: in vivo; details: rabbit
[3] = system: thrombus growth in abdominal vena cava; assay: Rabbit deep vein thrombosis model; format: in vivo; details: for Hct / PLT / RBC / WBC: mean±SD
Excerpt: Haemost. […] Rabbits were anesthetized with I.M. injections of Ketamine, Xylazine, and Acepromazine cocktail.

[4] = molecular target: T1, thrombin (Homo sapiens, UniProt P00734); assay: Thrombin amidolytic assay (Chromozym TH); format: biochemical
T1 construct: The formation of thrombin is the result of the proteolytic cleavage of its precursor prothrombin

[5] = molecular target: prothrombinase complex (Homo sapiens, UniProt P00742); assay: Prothrombinase inhibition assay, plasma free system; format: biochemical; details: 5 min preincubation, factor Xa 0.5 nM, factor Va 2 nM, pH 7.5; read-out: Inhibitory Activity (IC50) Prothrombinase
[6] = 5 min preincubation, room temperature, pH 7.5, read-out: Inhibitory Activity (IC50) Factor Xa
[7] = 5 min preincubation, room temperature, pH 7.5, read-out: Inhibitory Activity (IC50) Thrombin

Sequence of factor Xa (P00742 235-488 limits assumed): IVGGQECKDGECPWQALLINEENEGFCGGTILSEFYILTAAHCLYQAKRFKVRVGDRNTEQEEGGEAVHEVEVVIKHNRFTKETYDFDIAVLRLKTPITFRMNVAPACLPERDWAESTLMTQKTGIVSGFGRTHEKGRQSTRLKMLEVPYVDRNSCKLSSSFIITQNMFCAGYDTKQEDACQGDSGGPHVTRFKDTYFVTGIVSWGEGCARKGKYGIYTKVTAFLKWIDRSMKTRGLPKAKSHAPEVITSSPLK
Sequence of factor Xa (P00742 41-179 limits assumed): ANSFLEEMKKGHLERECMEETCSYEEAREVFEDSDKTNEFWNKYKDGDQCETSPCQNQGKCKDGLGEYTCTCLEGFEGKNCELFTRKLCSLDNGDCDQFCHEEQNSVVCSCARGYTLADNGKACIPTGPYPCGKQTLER
Sequence of prothrombinase complex (P00742 235-488 limits assumed): as the sequence (P00742 235-488 limits assumed) above
Sequence of prothrombinase complex (P00742 41-179 limits assumed): as the sequence (P00742 41-179 limits assumed) above

CC(C)(C)OC(=O)N[C@H](CCCNC(=N)N)C(=O)NCC(=O)N[C@H](C=O)CCCNC(=N)N [Boc--D--Arg--Gly--Arg--H, Boc-D-Arg-Gly-Arg-H] (Boc-[dR]-Gly-Arg-aldehyde)
IC50 [1, 6]: 50 nM
anticoagulative effect ([2]; 2.0 mg/kg I.V. bolus): plasma concentration-dependent anticoagulative effect
% Inhibition of Thrombosis ([3]; 200 + 1.98 μg/kg + μg/kg/min): 8.4%
% Inhibition of Thrombosis ([3]; 600 + 5.94 μg/kg + μg/kg/min): -6.6%
% Inhibition of Thrombosis ([3]; 1000 + 9.90 μg/kg + μg/kg/min): 58.6%
% Inhibition of Thrombosis ([3]; 1500 + 14.85 μg/kg + μg/kg/min): 31.4%
antithrombotic efficacy in the rabbit venous thrombosis model ([3]; bolus + infusion, all doses evaluated): demonstrated antithrombotic efficacy at the higher doses evaluated

CN(C)C(=NCCCC[C@@H](NC(=O)OC(C)(C)C)C(=O)NCC(=O)N[C@H](C=O)CCCNC(=N)N)N(C)C [Boc--D--Har((CH3)4)--Gly--Arg--H, Boc-D-Har((CH3)4)-Gly-Arg-H]
IC50 [4, 7]: > 100000 nM

CCOC(=O)N[C@H](CCCN=C(N)N)C(=O)NCC(=O)N[C@H](C=O)CCCN=C(N)N [EtOCO--D--Arg--Gly--Arg--H, EtO2 C-D-Arg-Gly-Arg-H]
IC50 [1]: 49 nM

C[C@@H](NC(=O)[C@@H](CCCNC(=N)N)NC(=O)OC(C)(C)C)C(=O)N[C@H](C=O)CCCNC(=N)N [Boc--D--Arg--D--Ala--Arg--H, Boc-D-Arg-D-Ala-Arg-H] (Boc-[dR]-[dA]-Arg-aldehyde)
IC50 [1, 6]: 230 nM

N=C(N)NCCC[C@@H](C=O)NC(=O)CNC(=O)[C@@H](CCCNC(=N)N)NS(=O)(=O)Cc1ccccc1 [PhCH2 SO2 --D--Arg--Gly--Arg--H, Benzylsulfonyl-D-Arg-Gly-Arg-H]
IC50 [4]: 33000 nM

CC(C)(C)OC(=O)N[C@H](CCCNC(N)=O)C(=O)NCC(=O)N[C@H](C=O)CCCN=C(N)N [Boc--D--Cit--Gly--Arg--H, Boc-D-Cit-Gly-Arg-H] (Boc-[dCit]-Gly-Arg-aldehyde)
IC50 [1]: 5000 nM
IC50 [5]: 44000 nM

N=C(N)NCCC[C@@H](C=O)NC(=O)CNC(=O)[C@@H](CCCNC(=N)N)NC(=O)C(=O)O [HOOCCO--D--Arg--Gly--Arg--H, Oxaloyl-D-Arg-Gly-Arg-H]
IC50 [5]: 630 nM

N=C(N)NCCC[C@@H](C=O)NC(=O)CNC(=O)[C@@H](CCCNC(=N)N)NC(=O)CCC(=O)O [HOOC(CH2)2 CO--D--Arg--Gly--Arg--H, Succinoyl-D-Arg-Gly-Arg-H] (Suc-[dR]-Gly-Arg-aldehyde)
IC50 [1, 6]: 224 nM

CC(C)(C)OC(=O)N[C@H](CCCN=C(N)N)C(=O)NCC(=O)N[C@H](C=O)CCCN=C(N)N [Boc--D--Arg--Gly--Arg--H, Boc-D-Arg-Gly-Arg-H] (Boc-[dR]-Gly-Arg-aldehyde)
changes in hematological parameters as compared to saline controls ([2]; 2.0 mg/kg I.V. bolus): no significant changes
mean clearance value (CL) ([2]; I.V.): 1.16 mL/min/kg
volume of distribution ([2]; I.V.): 0.1183 L/kg
mean plasma half-life ([2]; I.V., n=3): 1.18 h
Hct ([3]; 200 + 1.98 μg/kg + μg/kg/min): 36.9 ± 3.90%
PLT ([3]; 200 + 1.98 μg/kg + μg/kg/min): 393 ± 84 10^3 /μL
RBC ([3]; 200 + 1.98 μg/kg + μg/kg/min): 5.69 ± 0.14 10^6 /μL
WBC ([3]; 200 + 1.98 μg/kg + μg/kg/min): 4.45 ± 0.97 10^3 /μL
Hct ([3]; 600 + 5.94 μg/kg + μg/kg/min): 35.3 ± 3.01%
PLT ([3]; 600 + 5.94 μg/kg + μg/kg/min): 442 ± 81 10^3 /μL
RBC ([3]; 600 + 5.94 μg/kg + μg/kg/min): 5.74 ± 0.48 10^6 /μL
WBC ([3]; 600 + 5.94 μg/kg + μg/kg/min): 3.87 ± 0.65 10^3 /μL
Hct ([3]; 1000 + 9.90 μg/kg + μg/kg/min): 35.5 ± 1.01%
PLT ([3]; 1000 + 9.90 μg/kg + μg/kg/min): 375 ± 73 10^3 /μL
RBC ([3]; 1000 + 9.90 μg/kg + μg/kg/min): 5.71 ± 0.28 10^6 /μL
WBC ([3]; 1000 + 9.90 μg/kg + μg/kg/min): 5.09 ± 1.61 10^3 /μL
Hct ([3]; 1500 + 14.85 μg/kg + μg/kg/min): 36.0 ± 3.31%
PLT ([3]; 1500 + 14.85 μg/kg + μg/kg/min): 433 ± 22 10^3 /μL
RBC ([3]; 1500 + 14.85 μg/kg + μg/kg/min): 5.80 ± 0.50 10^6 /μL
WBC ([3]; 1500 + 14.85 μg/kg + μg/kg/min): 4.82 ± 1.01 10^3 /μL
effects on hematological parameters as compared to saline controls ([3]; bolus + infusion): no significant effects

CC(C)(C)OC(=O)N[C@H](CCCCN)C(=O)NCC(=O)N[C@H](C=O)CCCNC(=N)N [Boc--D--Lys--Gly--Arg--H, Boc-D-Lys-Gly-Arg-H] (Boc-[dK]-Gly-Arg-aldehyde)
IC50 [1, 6]: 10000 nM

CC(C)(C)OC(=O)N[C@H](CCCNC(=N)N)C(=O)NC(C)(C)C(=O)N[C@H](C=O)CCCNC(=N)N [Boc--D--Arg--Aib--Arg--H, Boc-D-Arg-Aib-Arg-H] (Boc-[dR]-[Aib]-Arg-aldehyde)
IC50 [1, 6]: 552 nM

CC(C)(C)OC(=O)N[C@H](CCCNC(=N)N)C(=O)NCCC(=O)N[C@H](C=O)CCCNC(=N)N [Boc--D--Arg--β-Ala--Arg--H, Boc-D-Arg-β-Ala-Arg-H]
IC50 [4, 7]: > 500000 nM

NC(N)=NCCC[C@@H](C=O)NC(=O)CNC(=O)[C@H](N)CCCN=C(N)N [H--D--Arg--Gly--Arg--H, D-Arg-Gly-Arg-H] (H-[dR]-Gly-Arg-aldehyde)
IC50 [1]: 64 nM
IC50 [5]: 830 nM
IC50 [4]: 41000 nM

N=C(N)NCCC[C@@H](C=O)NC(=O)CNC(=O)[C@@H](CCCNC(=N)N)NC(=O)COc1ccc2ccccc2c1 [2-NaphthoxyAc--D--Arg--Gly--Arg--H, 2-Napthoxyacetyl-D-Arg-Gly-Arg-H]
IC50 [4]: > 100000 nM

CC(C)(C)OC(=O)N[C@H](CCCCNC(=N)N)C(=O)NCC(=O)N[C@H](C=O)CCCNC(=N)N [Boc--D--Har--Gly--Arg--H, Boc-D-Har-Gly-Arg-H] (Boc-[d(hArg)]-Gly-Arg-aldehyde)
IC50 [1, 6]: 100 nM
IC50 [5]: 173 nM
IC50 [4, 7]: 405000 nM

N=C(N)NCCC[C@@H](C=O)NC(=O)CNC(=O)[C@@H](CCCNC(=N)N)NC(=O)CCc1ccccc1 [PhCH2 CH2 CO--D--Arg--Gly--Arg--H, 3-Phenylpropanoyl-D-Arg-Gly-Arg-H] (Hydrocinnamoyl-[dR]-Gly-Arg-aldehyde)
IC50 [1, 6]: 200 nM
IC50 [5]: 2000 nM
IC50 [4, 7]: 75000 nM

N=C(N)NCCC[C@@H](C=O)NC(=O)CNC(=O)[C@@H](CCCNC(=N)N)NC(=O)CC(=O)O [HOOCCH2 CO--D--Arg--Gly--Arg--H, Malonoyl-D-Arg-Gly-Arg-H]
IC50 [1]: 98 nM

C[C@H](NC(=O)[C@@H](CCCNC(=N)N)NC(=O)OC(C)(C)C)C(=O)N[C@H](C=O)CCCNC(=N)N [Boc--D--Arg--Ala--Arg--H, Boc-D-Arg-Ala-Arg-H] (Boc-[dR]-Ala-Arg-aldehyde)
IC50 [1, 6]: 167 nM
